Results published in ChEMBL document CHEMBL1201862, “PubChem BioAssay data set” (2004).
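Exposure lasted 48 hours, with cells grown in 96-well plates and compounds tested at five concentrations. GI50 = concentration required for 50% inhibition of growth.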 Active and inactive are the calls of the source. Rule as the data show it: active = GI50 up to about 1.1 µM and inactive = higher.

Legend:
Assay in all cases: NCI tumour cell line growth inhibition, 48 h
HOP-92 = tested on: HOP-92
HL-60 = tested on: HL-60
IGROV-1 = tested on: IGROV-1
TK-10 = tested on: TK-10
786-0 = tested on: 786-0
UACC-62 = tested on: UACC-62
SK-OV-3 = tested on: SK-OV-3
NCI-H522 = tested on: NCI-H522
SW-620 = tested on: SW-620
PC-3 = tested on: PC-3
MOLT-4 = tested on: MOLT-4
SK-MEL-28 = tested on: SK-MEL-28
SK-MEL-2 = tested on: SK-MEL-2
K562 = tested on: K562
NCI/ADR-RES = tested on: NCI/ADR-RES
UACC-257 = tested on: UACC-257
COLO 205 = tested on: COLO 205
CCRF-CEM = tested on: CCRF-CEM
NCI-H460 = tested on: NCI-H460
SF-539 = tested on: SF-539

Structure (SMILES)	GI50 (HOP-92)	GI50 (HL-60)	GI50 (IGROV-1)	GI50 (TK-10)	GI50 (786-0)	GI50 (UACC-62)	GI50 (SK-OV-3)	GI50 (NCI-H522)	GI50 (SW-620)	GI50 (PC-3)	GI50 (MOLT-4)	GI50 (SK-MEL-28)	GI50 (SK-MEL-2)	GI50 (K562)	GI50 (NCI/ADR-RES)	GI50 (UACC-257)	GI50 (COLO 205)	GI50 (CCRF-CEM)	GI50 (NCI-H460)	GI50 (SF-539)
CC(C)(C)OC(=O)CCC1NC(=O)[C@@H]2Cc3c([nH]c4ccccc34)C(C3CCCCC3)N2C1=O (stereo partly drawn)	33.2 µM (inactive)	16.6 µM (inactive)	36.8 µM (inactive)	34.7 µM (inactive)	35.3 µM (inactive)	45.3 µM (inactive)	44.6 µM (inactive)	30.3 µM (inactive)	44.4 µM (inactive)	18.8 µM (inactive)	12.4 µM (inactive)	68.9 µM (inactive)	22.8 µM (inactive)	32.4 µM (inactive)	48.8 µM (inactive)	29.4 µM (inactive)	17.9 µM (inactive)	–	–	–
N#CCCC(C=O)(CCC#N)CCC#N	> 100 µM (inactive)	> 100 µM (inactive)	> 100 µM (inactive)	> 100 µM (inactive)	> 100 µM (inactive)	> 100 µM (inactive)	> 100 µM (inactive)	> 100 µM (inactive)	> 100 µM (inactive)	> 100 µM (inactive)	–	> 100 µM (inactive)	> 100 µM (inactive)	> 100 µM (inactive)	> 100 µM (inactive)	> 100 µM (inactive)	> 100 µM (inactive)	> 100 µM (inactive)	> 100 µM (inactive)	> 100 µM (inactive)
Cc1[nH]c(C)c(CN(C)C)c1CN(C)C	> 100 µM (inactive)	–	> 100 µM (inactive)	> 100 µM (inactive)	> 100 µM (inactive)	> 100 µM (inactive)	> 100 µM (inactive)	> 100 µM (inactive)	> 100 µM (inactive)	> 100 µM (inactive)	–	> 100 µM (inactive)	> 100 µM (inactive)	> 100 µM (inactive)	> 100 µM (inactive)	> 100 µM (inactive)	> 100 µM (inactive)	> 100 µM (inactive)	> 100 µM (inactive)	> 100 µM (inactive)
O=c1c2cc3c(cc2[nH]c2ncccc12)OCO3	> 10 µM (inactive)	> 10 µM (inactive)	> 10 µM (inactive)	> 10 µM (inactive)	> 10 µM (inactive)	> 10 µM (inactive)	> 10 µM (inactive)	> 10 µM (inactive)	> 10 µM (inactive)	> 10 µM (inactive)	> 10 µM (inactive)	> 10 µM (inactive)	> 10 µM (inactive)	> 10 µM (inactive)	> 10 µM (inactive)	> 10 µM (inactive)	> 10 µM (inactive)	> 10 µM (inactive)	> 10 µM (inactive)	> 10 µM (inactive)
COc1ccc2c(c1)C(N)=C(Cc1ccncc1)C2=O	31.4 µM (inactive)	49.4 µM (inactive)	56.9 µM (inactive)	> 100 µM (inactive)	> 100 µM (inactive)	81.3 µM (inactive)	> 100 µM (inactive)	89.7 µM (inactive)	> 100 µM (inactive)	91.8 µM (inactive)	63.1 µM (inactive)	> 100 µM (inactive)	> 100 µM (inactive)	> 100 µM (inactive)	> 100 µM (inactive)	> 100 µM (inactive)	> 100 µM (inactive)	75.2 µM (inactive)	> 100 µM (inactive)	> 100 µM (inactive)
COc1ccccc1-c1cc(=O)c2ccccc2n1C1CC1	1.78 µM (inactive)	13.7 µM (inactive)	4.43 µM (inactive)	–	3.99 µM (inactive)	2.77 µM (inactive)	6.73 µM (inactive)	0.865 µM (active)	3.13 µM (inactive)	4.15 µM (inactive)	19.4 µM (inactive)	–	2.69 µM (inactive)	9.68 µM (inactive)	5.38 µM (inactive)	8.2 µM (inactive)	1.57 µM (inactive)	4.83 µM (inactive)	2.74 µM (inactive)	4.6 µM (inactive)
CCCC(CCC(=O)O)(CCC(=O)O)[N+](=O)[O-]	> 100 µM (inactive)	> 100 µM (inactive)	> 100 µM (inactive)	> 100 µM (inactive)	> 100 µM (inactive)	> 100 µM (inactive)	> 100 µM (inactive)	> 100 µM (inactive)	> 100 µM (inactive)	> 100 µM (inactive)	> 100 µM (inactive)	–	> 100 µM (inactive)	> 100 µM (inactive)	> 100 µM (inactive)	> 100 µM (inactive)	> 100 µM (inactive)	–	> 100 µM (inactive)	> 100 µM (inactive)
Cc1nn(C(=O)c2ccc(Cl)cc2)c2c1C(c1ccccc1[N+](=O)[O-])SC(=N)N2 (stereo not drawn)	> 10 µM (inactive)	> 10 µM (inactive)	> 10 µM (inactive)	> 10 µM (inactive)	> 10 µM (inactive)	> 10 µM (inactive)	> 10 µM (inactive)	> 10 µM (inactive)	> 10 µM (inactive)	> 10 µM (inactive)	> 10 µM (inactive)	–	> 10 µM (inactive)	> 10 µM (inactive)	> 10 µM (inactive)	> 10 µM (inactive)	> 10 µM (inactive)	> 10 µM (inactive)	> 10 µM (inactive)	> 10 µM (inactive)
COCOc1cc(OCOC)cc(C(=O)Oc2ccccc2)c1	> 100 µM (inactive)	> 100 µM (inactive)	> 100 µM (inactive)	> 100 µM (inactive)	> 100 µM (inactive)	> 100 µM (inactive)	> 100 µM (inactive)	48.3 µM (inactive)	> 100 µM (inactive)	93.8 µM (inactive)	> 100 µM (inactive)	> 100 µM (inactive)	> 100 µM (inactive)	> 100 µM (inactive)	> 100 µM (inactive)	> 100 µM (inactive)	> 100 µM (inactive)	–	> 100 µM (inactive)	> 100 µM (inactive)
CC(=O)OC12c3ccccc3-c3ccccc3C1C1C(=O)N(C)C(=O)C12Cl (stereo not drawn)	> 10 µM (inactive)	> 10 µM (inactive)	> 10 µM (inactive)	> 10 µM (inactive)	> 10 µM (inactive)	–	> 10 µM (inactive)	> 10 µM (inactive)	> 10 µM (inactive)	> 10 µM (inactive)	> 10 µM (inactive)	> 10 µM (inactive)	> 10 µM (inactive)	> 10 µM (inactive)	> 10 µM (inactive)	> 10 µM (inactive)	> 10 µM (inactive)	> 10 µM (inactive)	> 10 µM (inactive)	> 10 µM (inactive)
COc1cc(S(=O)(=O)Nc2ccc(-c3csc(N4C(=O)C(C)SC4c4ccccc4)n3)cc2)ccc1Cl (stereo not drawn)	31.9 µM (inactive)	21.1 µM (inactive)	17.5 µM (inactive)	–	20 µM (inactive)	21.4 µM (inactive)	–	33.8 µM (inactive)	35.4 µM (inactive)	19.9 µM (inactive)	33 µM (inactive)	24.7 µM (inactive)	0.979 µM (active)	30.6 µM (inactive)	> 100 µM (inactive)	37.4 µM (inactive)	27.2 µM (inactive)	40 µM (inactive)	–	13.4 µM (inactive)
COc1ccc(C(=O)N(C(=O)N2CCN(c3ccccc3)CC2)S(=O)(=O)c2ccccc2)cc1	25.4 µM (inactive)	22.1 µM (inactive)	–	38.4 µM (inactive)	29.9 µM (inactive)	18.3 µM (inactive)	86.5 µM (inactive)	15.4 µM (inactive)	37.4 µM (inactive)	30.5 µM (inactive)	19.5 µM (inactive)	30.8 µM (inactive)	18.5 µM (inactive)	24.2 µM (inactive)	21.9 µM (inactive)	31.4 µM (inactive)	17.9 µM (inactive)	25.1 µM (inactive)	32.4 µM (inactive)	17.8 µM (inactive)
OCCNc1ncnc2[nH]cnc12	> 100 µM (inactive)	> 100 µM (inactive)	> 100 µM (inactive)	> 100 µM (inactive)	> 100 µM (inactive)	> 100 µM (inactive)	> 100 µM (inactive)	> 100 µM (inactive)	> 100 µM (inactive)	> 100 µM (inactive)	> 100 µM (inactive)	> 100 µM (inactive)	> 100 µM (inactive)	> 100 µM (inactive)	> 100 µM (inactive)	> 100 µM (inactive)	> 100 µM (inactive)	–	> 100 µM (inactive)	–
C[N+]1=C2[B-](C(C)(C)C)=[N+](C(C)(C)C)[B-]2(C(C)(C)C)[N+](C)=C2[B-](C(C)(C)C)=[N+](C(C)(C)C)[B-]21C(C)(C)C (stereo not drawn)	> 100 µM (inactive)	> 100 µM (inactive)	> 100 µM (inactive)	> 100 µM (inactive)	> 100 µM (inactive)	> 100 µM (inactive)	> 100 µM (inactive)	> 100 µM (inactive)	> 100 µM (inactive)	> 100 µM (inactive)	> 100 µM (inactive)	> 100 µM (inactive)	> 100 µM (inactive)	> 100 µM (inactive)	> 100 µM (inactive)	> 100 µM (inactive)	> 100 µM (inactive)	> 100 µM (inactive)	> 100 µM (inactive)	–
COc1ccc(C2=NNC(=O)c3ccccc3N2c2nc(-c3cccs3)nc3cc(OC)c(OC)cc23)cc1	2.86 µM (inactive)	–	11.1 µM (inactive)	5.24 µM (inactive)	2.32 µM (inactive)	2.34 µM (inactive)	17 µM (inactive)	5.98 µM (inactive)	4.86 µM (inactive)	4.68 µM (inactive)	16.6 µM (inactive)	2.39 µM (inactive)	5.27 µM (inactive)	24.3 µM (inactive)	5.55 µM (inactive)	4.19 µM (inactive)	2.86 µM (inactive)	–	4.43 µM (inactive)	2.79 µM (inactive)
